The record followed here is ChEMBL document CHEMBL5370589, “Heterologous Production and Biosynthesis of Threonine-16:0dioic acids with a Hydroxamate Moiety” (J Nat Prod, 2023).

Active and inactive are the calls of the source. The calls are words filed in the database; no cut-off is given here.

A short description of series [1]: Metal chelating activity assessed as compound-[…] complex formation by chrome-azurol S assay.
For another series, the system named is Pseudomonas putida. In words: Antibiotic activity against Pseudomonas putida assessed as reduction in bacterial cell growth at 0.03 to 64 microg/ml. The class given is functional, organism-based. Particulars: dose 0.03-64 µg/ml.
Another series deals with Enterococcus mundtii. In words: Antibiotic activity against Enterococcus mundtii DSM-4840 assessed as reduction in bacterial cell growth at 0.03 to 64 microg/ml. Particulars: dose 0.03-64 µg/ml. The class given is functional, organism-based.
Another series has as its system Kocuria rhizophila. Description: Antibiotic activity against Kocuria rhizophila DSM-348 assessed as reduction in bacterial cell growth at 0.03 to 64 microg/ml. The class given is functional, organism-based. The note with it: dose 0.03-64 µg/ml.
Series [2] can be described thus: Metal chelating activity assessed as compound-[…] complex formation at 10 to 100 uM by chrome-azurol S assay. The note with it: dose 10-100 µM.
For a further series, the system named is Micrococcus luteus. In words: Antibiotic activity against Micrococcus luteus DSM-20030 assessed as reduction in bacterial cell growth at 0.03 to 64 microg/ml. Format: functional, organism-based. Particulars: dose 0.03-64 µg/ml.
The subject of a further series is Staphylococcus carnosus. In words: Antibiotic activity against Staphylococcus carnosus DSM-20501 assessed as reduction in bacterial cell growth at 0.03 to 64 microg/ml. Format: functional, organism-based. The note with it: dose 0.03-64 µg/ml.
A further series deals with Bacillus subtilis. In words: Antibiotic activity against Bacillus subtilis DSM-10 assessed as reduction in bacterial cell growth at 0.03 to 64 microg/ml. The class given is functional, organism-based. The note with it: dose 0.03-64 µg/ml.
A further series relates to HepG2. In words: Cytotoxicity against human HepG2 cells assessed as reduction in cell viability. The class given is toxicity, cell-based.
Another series has as its system Staphylococcus aureus. Description: Antibiotic activity against Staphylococcus aureus Newman assessed as reduction in bacterial cell growth at 0.03 to 64 microg/ml. The class given is functional, organism-based. Particulars: dose 0.03-64 µg/ml.
Another series has as its system Erwinia persicina. In words: Antibiotic activity against Erwinia persicina DSM-19328 assessed as reduction in bacterial cell growth at 0.03 to 64 microg/ml. The class given is functional, organism-based. Particulars: dose 0.03-64 µg/ml.
Another series concerns Escherichia coli. Description: Antibiotic activity against wild-type Escherichia coli BW25113 assessed as reduction in bacterial cell growth at 0.03 to 64 microg/ml. The class given is functional, organism-based. The note with it: dose 0.03-64 µg/ml.
The nature of series [3]: Potency index, ratio of deferoxamine EC50 to compound EC50 for metal chelating activity assessed as compound-[…] complex formation by chrome-azurol S assay.

`O=C(O)CN(CCN(CC(=O)O)CC(=O)O)CC(=O)O` [EDETIC ACID]: the EC50 in series [1] is 18 µM.
As to `CC(=O)N[C@@H](CSC(CCCCCCCCCCCCCC(=O)O)C(=O)N[C@@H](C(=O)O)[C@@H](C)O)C(=O)O` (stereo partly specified), the result (in the series with Pseudomonas putida; with Enterococcus mundtii; in the series with Kocuria rhizophila; in series [2]; with Micrococcus luteus; with Staphylococcus carnosus) was inactive. Further, the result in the series with Bacillus subtilis, in the series with Staphylococcus aureus, with Erwinia persicina and in the series with Escherichia coli was inactive. Moreover, the Activity result in the series on HepG2 is reported as “Non-Toxic”.
Regarding `CC(=O)N(O)CCCCCNC(=O)CCC(=O)N(O)CCCCCNC(=O)CCC(=O)N(O)CCCCCN` [DEFEROXAMINE], in [1], the EC50 amounted to 11 µM.
Consider `C[C@@H](O)[C@H](C(=O)O)N(O)C(=O)CCCCCCCCCCCCCCC(=O)O`, for which the result with Pseudomonas putida, in the series on Enterococcus mundtii, in the series on Kocuria rhizophila, with Micrococcus luteus, with Staphylococcus carnosus and in the series on Bacillus subtilis was inactive. The result in the series on Staphylococcus aureus, with Erwinia persicina and with Escherichia coli was inactive. Besides, the Activity entry in the series with HepG2 is on record as “Non-Toxic”. The 50% effective concentration (EC50) in [1] amounted to 58 µM. Also, the Ratio EC50 in [3] came to 5.
For `CC(CCCCCCCCCCCCC(=O)N(O)[C@@H](C(=O)O)[C@@H](C)O)C(=O)O` (stereo partly specified), the EC50 in series [1] amounted to 75 µM.
